Data as given in patent US7824850B2, “Methods of protein destabilization and uses thereof” (Aurora Biosciences Corporation, priority 2000, dated 2010).
Where a SMILES comes first, the peptide text is derived from it. [ ]: non-standard residue; d: D form. The star is where a group is joined. Nle = CCCC[C@H](N)C(=O)O; Cbz = O=C(OCc1ccccc1)*; CH2F = FC*

Assays:
[1] = system: proteasome; assay: TNT in vitro synthesis of multiUb-Bla fusions with or without proteasome inhibitor; conditions: 50 μM; β-lactamase fusions containing 2, 3 or 4 copies of ubiquitinG76V
Description: S-Labeled multimerized destabilization domain-β-lactamase fusion protein molecules were produced using a coupled in vitro transcription/translation system based on a rabbit reticulocyte lysate (TNT T7 Quick; Promega).

[2] = system: proteasome; assay: In vitro degradation of 2XUb-Bla in chase lysate with inhibitors; conditions: 20 minutes at 37° C.
[3] = biological target: T1, proteasome (Homo sapiens, UniProt P28074); conditions: read-out: IC50 inhibition of decay of β-lactamase activity; Jurkat cells expressing 2XUb-Bla, 30 minutes preincubation, cycloheximide 1 hour
T1 sequence (P28074 60-263): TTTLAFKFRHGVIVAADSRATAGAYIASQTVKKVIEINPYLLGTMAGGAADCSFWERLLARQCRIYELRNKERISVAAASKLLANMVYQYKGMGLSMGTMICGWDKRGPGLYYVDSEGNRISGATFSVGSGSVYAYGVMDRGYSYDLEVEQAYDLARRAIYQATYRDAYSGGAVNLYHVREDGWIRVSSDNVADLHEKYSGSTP
T1 sequence (P28072 35-239 partner): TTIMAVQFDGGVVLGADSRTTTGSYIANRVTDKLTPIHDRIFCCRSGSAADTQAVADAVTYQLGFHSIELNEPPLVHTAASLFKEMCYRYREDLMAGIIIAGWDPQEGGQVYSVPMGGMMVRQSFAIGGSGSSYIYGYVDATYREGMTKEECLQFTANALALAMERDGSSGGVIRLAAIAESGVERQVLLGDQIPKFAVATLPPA
T1 sequence (Q99436 44-277 partner): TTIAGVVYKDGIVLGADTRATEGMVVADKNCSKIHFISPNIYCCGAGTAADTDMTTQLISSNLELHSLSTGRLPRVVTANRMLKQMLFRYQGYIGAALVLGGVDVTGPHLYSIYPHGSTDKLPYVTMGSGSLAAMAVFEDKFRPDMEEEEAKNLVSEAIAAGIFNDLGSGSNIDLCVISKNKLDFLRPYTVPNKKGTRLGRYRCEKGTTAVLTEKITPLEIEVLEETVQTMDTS
Description: The cells were loaded with CCF2-AM to measure β-lactamase activity as described above.
After 1 hour at 37° C., the cells were cooled to room temperature and then loaded with 1 μM CCF2-AM and β-lactamase activity quantified using a CytoFluor plate reader. The background-subtracted emission values at 460 nm and 530 nm were expressed as a 460/530 ratio and dose-response curves were plotted.

[4] = biological target: T2, β-lactamase (Escherichia coli, UniProt P62593); assay: Control: β-lactamase activity in Jurkat cells expressing wild-type β-lactamase; format: cell-based; conditions: data not shown
T2 construct: wild-type (cleavable) ubiquitin (N, cleaved yes); expressed in transfected cells; host or cells: Jurkat

[5] = system: HRV16 2A protease; assay: HRV 2A protease cell-based assay, Jurkat clone expressing 3XUb-HRV16-Bla; parameters: species or system human rhinovirus 16; conditions: compound 1 μM, 4 hours, cycloheximide 30 minutes
Description: (§1) To assay HRV 2A protease activity, the selected Jurkat stable cell clones were treated for 16 hours with […] clavulanate to inactivate pre-existing cleaved and uncleaved HRV 2A-Bla fusion protein. Cells were then washed twice with PBS, resuspended at 100,000 cells/well in 100 μl RPMI+10% FBS in 96-well plates. The cells were incubated at 37° C. for 4 hours in the presence or absence of an inhibitor of the 2A protease. Cells were treated with 100 μg/ml cycloheximide for 30 minutes at 37° C., loaded with CCF2-AM for 2 hours at room temperature and read on the CytoFluor plate reader as described in Example 8. Inhibitor compounds, radicicol and geldanamycin, were used for the validation of the HRV protease cell-based assay. […] Compounds were tested at 1 μM for their ability to inhibit the HRV 2A protease cell-based assay using clones expressing HRV16 and HRV14 2A protease reporters.

[6] = system: HRV14 2A protease; assay: HRV 2A protease cell-based assay, Jurkat clone expressing 3XUb-HRV14-Bla; parameters: species or system human rhinovirus 14; conditions: compound 1 μM, 4 hours, cycloheximide 30 minutes
Description: as §1

[7] = overnight treatment of Jurkat cells; cited from earlier work
[8] = system: group II caspases; assay: Caspase activity assay in Jurkat clones expressing 2XUb-DEVD-Bla or 2XUb-DEVA-Bla (CCF2-AM, 460/530 ratio); format: cell-based, human

T2 sequence (P62593 24-286 limits assumed): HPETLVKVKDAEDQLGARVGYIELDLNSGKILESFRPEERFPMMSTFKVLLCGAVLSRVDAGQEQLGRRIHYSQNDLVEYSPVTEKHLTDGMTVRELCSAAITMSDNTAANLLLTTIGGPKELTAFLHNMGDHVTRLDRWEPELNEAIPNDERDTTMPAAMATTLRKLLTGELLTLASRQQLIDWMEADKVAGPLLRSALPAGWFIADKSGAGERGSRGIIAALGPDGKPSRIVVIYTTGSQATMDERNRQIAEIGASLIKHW

In the case of `CC(C)C[C@@H](C=O)NC(=O)[C@H](CC(C)C)NC(=O)[C@H](CC(C)C)NC(=O)OCc1ccccc1` [MG132] (Cbz-Leu-Leu-Leu-aldehyde), the “effect on amount of fusion protein synthesized” value [1] is reported as “dramatic increase in the amount of fusion protein synthesized”.

For `CC(=O)N[C@@H](CSC(=O)[C@]1([C@@H](O)C(C)C)NC(=O)[C@H](C)[C@@H]1O)C(=O)O` [lactacystin], the “effect on degradation of 2XUb-Bla in vitro” value ([2]; 10 μM) was “stabilized the 2XUb-Bla fusion protein”.

With `CCCC[C@@H](C=O)NC(=O)[C@H](CC(C)C)NC(=O)[C@H](CC(C)C)NC(C)=O` [Ac-LLN] (Ac-Leu-Leu-[Nle]-aldehyde) the “effect on degradation of 2XUb-Bla in vitro” value ([2]; 50 μM) was “stabilized the 2XUb-Bla fusion protein” and the IC50 [3] was 13 µM.

In the case of `C[C@@H]1C[C@H]2O[C@@H]2/C=C\C=C\C(=O)Cc2c(Cl)c(O)cc(O)c2C(=O)O1` [radicicol], the “inhibition of β-lactamase activity (control)” value [4] is reported as “did not inhibit β-lactamase activity”, the 460/530 nm ratio [5] is reported as 0.229 and the 460/530 nm ratio [6] is reported as 0.152.

Work on `COC1=C2C[C@@H](C)C[C@H](OC)[C@H](O)[C@@H](C)/C=C(\C)[C@H](OC(N)=O)[C@@H](OC)/C=C\C=C(/C)C(=O)NC(=CC1=O)C2=O` [geldanamycin] yielded a 460/530 nm ratio [5] of 0.239 and a 460/530 nm ratio [6] of 0.153.

In the case of `O=C(O)[C@H]1/C(=C/CO)O[C@@H]2CC(=O)N21` [Clavulanate, clavulanate], the “effect on β-lactamase levels” value [7] is given as “reduces β-lactamase levels to background”.

For `COC(=O)C[C@H](NC(=O)[C@H](C)NC(=O)[C@@H](NC(=O)OCc1ccccc1)C(C)C)C(=O)CF` [Z-VAD-fmk] (Cbz-Val-Ala-Asp(OMe)-CH2F), the “effect on stabilization of DEVD-Bla reporters” value ([8]; 10 μM coincident with anti-Fas addition) was “blocked the stabilization of DEVD-Bla reporters” and the IC50 ([8]; Jurkat cells expressing 2XUb-DEVD-Bla, 50 ng/ml anti-Fas IgM, read-out: IC50 inhibition of anti-Fas induced caspase activity) was 5 µM.
